Experimental findings from article PMC12396240 (Drug Design, Development and Therapy, 2025) are described below.

One may read the AUC(0-t) as the area under the concentration-time curve up to a stated or last time point. Low values mean low exposure, high ones high exposure. The AUC(0-inf) is total exposure, with the tail of the curve extrapolated. The low end stands for less exposure, the high end for more exposure. Broadly, the Cmax is the peak of the concentration-time curve. In general, MRT last refers to the average time that molecules of a dose stay in the body. In general, MRT inf refers to the average time that molecules of a dose stay in the body. Broadly, the Tmax is the time at which the peak concentration occurs. Broadly, the half-life is how long it takes for the measured level to halve.

The nature of series [1]: Pharmacokinetics of apixaban in rats, alone and with palbociclib. In kind it is in vivo, Sprague-Dawley rats.
Series [2] can be described thus: Pharmacokinetics of palbociclib in rats, alone and with apixaban or rivaroxaban. In kind it is in vivo, Sprague-Dawley rats.
In another series the test system is P-gp (Abcb1a). In words: qRT-PCR mRNA expression in rat liver and intestine after palbociclib for 8 days. In kind it is in vivo. The conditions noted are these: palbociclib for eight consecutive days vs blank control. (In general: In qPCR the cycle at which signal appears reflects the starting amount.)
A further series deals with BCRP (Abcg2). The series is described as above. In kind it is in vivo. The following applies: palbociclib for eight consecutive days vs blank control.
Series [3] is described as follows: Pharmacokinetics of rivaroxaban in rats, alone and with palbociclib. In kind it is in vivo, Sprague-Dawley rats.
Where [4] appears, read: apixaban 0.25 mg/kg alongside palbociclib, rats, no statistical significance.
Setting [5] is: apixaban 0.5 mg/kg with simultaneous palbociclib vs apixaban-only group, rats.
[6] abbreviates: apixaban 0.5 mg/kg with simultaneous palbociclib vs control group, rats.
The mark [7] stands for this setting: palbociclib co-administered with apixaban vs palbociclib alone, rats.
Where [8] appears, read: palbociclib co-administered with rivaroxaban vs palbociclib alone, rats.
[9] abbreviates: SD rats, oral, rivaroxaban 2 mg/kg alone, geometric mean (GSD) (geometric CV%).
[10] abbreviates: male, Sprague-Dawley, rat, plasma, po, 2 mg/kg.
Where [11] appears, read: rivaroxaban 1 mg/kg + multiple doses of palbociclib compared with rivaroxaban 2 mg/kg, rats.

SMILES strings stand for the structures. Entries after “also recorded” stand apart in the source; their conditions may differ.

Take `COc1ccc(-n2nc(C(N)=O)c3c2C(=O)N(c2ccc(N4CCCCC4=O)cc2)CC3)cc1` [Apixaban, apixaban]: the CLz in series [1] (SD rats, oral, apixaban 0.5 mg/kg alone, geometric mean (GSD) (geometric CV%)) is reported as 0.86(GSD 1.49) (110.3%) L/h/kg. Also, the “differences for CLz/F, Tmax, t1/2, Vz/F, MRT0-t and MRT0-∞ of apixaban” value in series [1] (apixaban 0.25 mg/kg alongside palbociclib, rats) is “no significant differences”. In series [1] (setting [4]), the “increase in AUC0-t of apixaban” value is listed as 43.35%, the “increase in AUC0-∞ of apixaban” value stood at 43.49% and the “increase in Cmax of apixaban” value amounted to 45.03%. Besides, in series [1] (setting [5]), the “increase in AUC0-t of apixaban” value is on record as 258.36%, the “increase in AUC0-∞ of apixaban” value was determined as 256.64% and the “increase in Cmax of apixaban” value stood at 243.61%. In series [1] (setting [6]), the “decrease in apparent volume of distribution Vz/F of apixaban” value was 73.73% and the “decrease in clearance CLz/F of apixaban” value is 72.53%. Moreover, the “effect on pharmacokinetic parameters of apixaban” value in series [1] (apixaban and palbociclib given 12 hours apart, rats) is “no significant pharmacokinetic changes; also recorded: not affected”. In series [1] (male, Sprague-Dawley, rat, plasma, po, 0.5 mg/kg, AUC0-t, SD rats, apixaban 0.5 mg/kg alone, geometric mean (GSD) (geometric CV%)), this compound yielded an AUC(0-t) of 579 ng·h/mL. The compound further came in with an AUC(0-inf) in series [1] (male, Sprague-Dawley, rat, plasma, po, 0.5 mg/kg, AUC0-∞, SD rats, apixaban 0.5 mg/kg alone, geometric mean (GSD) (geometric CV%)) of 583 ng·h/mL. The compound also yielded a Cmax in series [1] (male, Sprague-Dawley, rat, plasma, po, 0.5 mg/kg, Cmax, SD rats, apixaban 0.5 mg/kg alone, geometric mean (GSD) (geometric CV%)) of 243 ng/mL. The compound also returned an MRT last in series [1] (male, Sprague-Dawley, rat, plasma, po, 0.5 mg/kg, MRT0-t, SD rats, apixaban 0.5 mg/kg alone, geometric mean (GSD) (geometric CV%)) of 1.83 h. Also, the MRT inf in series [1] (male, Sprague-Dawley, rat, plasma, po, 0.5 mg/kg, MRT0-∞, SD rats, apixaban 0.5 mg/kg alone, geometric mean (GSD) (geometric CV%)) worked out at 1.92 h. Besides, the time of peak concentration (Tmax) in series [1] (male, Sprague-Dawley, rat, plasma, po, 0.5 mg/kg, Tmax, SD rats, apixaban 0.5 mg/kg alone, geometric mean (GSD) (geometric CV%)) came to 0.53 h.

Take `CC(=O)c1c(C)c2cnc(Nc3ccc(N4CCNCC4)cn3)nc2n(C2CCCC2)c1=O` [Palbociclib, palbociclib]: in series [2] (male, Sprague-Dawley, rat, plasma, po, 11 mg/kg, AUC0-t, SD rats, palbociclib 11 mg/kg alone, geometric mean (GSD) (geometric CV%)), the AUC(0-t) is 4340 ng·h/mL. For the same compound, the AUC(0-inf) in series [2] (male, Sprague-Dawley, rat, plasma, po, 11 mg/kg, AUC0-∞, SD rats, palbociclib 11 mg/kg alone, geometric mean (GSD) (geometric CV%)) is 4350 ng·h/mL. For the same compound, in series [2] (male, Sprague-Dawley, rat, plasma, po, 11 mg/kg, Cmax, SD rats, palbociclib 11 mg/kg alone, geometric mean (GSD) (geometric CV%)), the concentration peaked (Cmax) at 469 ng/mL. Moreover, in series [2] (male, Sprague-Dawley, rat, plasma, po, 11 mg/kg, MRT0-t, SD rats, palbociclib 11 mg/kg alone, geometric mean (GSD) (geometric CV%)), the MRT last came out at 7.33 h. Also, the MRT inf in series [2] (male, Sprague-Dawley, rat, plasma, po, 11 mg/kg, MRT0-∞, SD rats, palbociclib 11 mg/kg alone, geometric mean (GSD) (geometric CV%)) worked out at 7.39 h. In addition, in series [2] (male, Sprague-Dawley, rat, plasma, po, 11 mg/kg, Tmax, SD rats, palbociclib 11 mg/kg alone, geometric mean (GSD) (geometric CV%)), the Tmax was 2.83 h. The half-life in series [2] (male, Sprague-Dawley, rat, plasma, po, 11 mg/kg, t1/2, SD rats, palbociclib 11 mg/kg alone, geometric mean (GSD) (geometric CV%)) is 3.99 h. In addition, in series [2] (setting [7]), the “increase in AUC0-t of palbociclib” value is on record as 24.75%, the “increase in AUC0-∞ of palbociclib” value stood at 24.83% and the “increase in Cmax of palbociclib” value was 49.30%. Further, in series [2] (setting [8]), the “increase in AUC0-t of palbociclib” value is 32.94% and the “increase in AUC0-∞ of palbociclib” value is 33.13%. Also, the “downregulation of P-gp mRNA expression” value with P-gp (Abcb1a) (intestine) came to 20.17%. Besides, in the series on P-gp (Abcb1a) (liver), the “effect on P-gp mRNA expression” value was “no significant effect”. The “effect on BCRP mRNA expression” value in the series with BCRP (Abcg2) (intestine) was “no significant inhibition”. Also, in the series on BCRP (Abcg2) (liver), the “decrease of BCRP mRNA expression” value came out at 31.66%.

As for `O=C(NC[C@H]1CN(c2ccc(N3CCOCC3=O)cc2)C(=O)O1)c1ccc(Cl)s1` [Rivaroxaban, rivaroxaban], in series [3] (setting [9]), the CLz is reported as 0.69(GSD 1.20) (65.6%) L/h/kg and the Vz is 2.13(GSD 1.55) (118.4%) L/kg. In series [3] (setting [10]), this compound displayed an MRT inf of 3.67 h and a mean residence time MRT last of 3.32 h. In addition, the AUC(0-t) in series [3] (male, Sprague-Dawley, rat, plasma, po, 2 mg/kg, AUC0-t, SD rats, rivaroxaban 2 mg/kg alone, geometric mean (GSD) (geometric CV%)) came to 691 ng·h/mL. Besides, in series [3] (male, Sprague-Dawley, rat, plasma, po, 2 mg/kg, AUC0-∞, SD rats, rivaroxaban 2 mg/kg alone, geometric mean (GSD) (geometric CV%)), the area under the curve AUC(0-inf) turned out to be 722 ng·h/mL. Further, in series [3] (male, Sprague-Dawley, rat, plasma, po, 2 mg/kg, Tmax, SD rats, rivaroxaban 2 mg/kg alone, geometric mean (GSD) (geometric CV%)), the Tmax came out at 1.02 h. Also, in series [3] (setting [11]), the “decrease in MRT0-t of rivaroxaban” value came out at 27.82%, the “decrease in MRT0-∞ of rivaroxaban” value amounted to 35.43%, the “decrease in apparent volume of distribution Vz/F of rivaroxaban” value is listed as 77.46% and the “decrease in clearance CLz/F of rivaroxaban” value came out at 60.87%. In series [3] (setting [11]), the “differences for Tmax and t1/2 of rivaroxaban” value was “no significant differences”; the “increase in AUC0-t of rivaroxaban” value is 161.86%; the “increase in AUC0-∞ of rivaroxaban” value was found to be 150.93%; the “increase in Cmax of rivaroxaban” value turned out to be 243.63%. Besides, in series [3] (rivaroxaban and palbociclib given 12 hours apart, rats), the “effect on pharmacokinetic parameters of rivaroxaban” value is reported as “no significant pharmacokinetic changes; also recorded: not affected”.
